According to patent US20190367448A1, “TREATMENT OF SLEEP-WAKE DISORDERS” (SK Biopharmaceuticals Co., Ltd., priority 2005, published 2019):

Key:
[1] = test system: male adult Sprague Dawley rats; assay: Sleep-wake organization in rats, polysomnographic recording (EEG, EOG, EMG, body movement) for 16 hours after acute i.p. administration; format: in vivo, rat; conditions: rats; for Duration (min) Active wake / Duration (min) Deep sleep / Duration (min) Light sleep / Duration (min) Passive wake / Duration (min) REM sleep / Duration (min) intermediate stage / ISWS/TST (%) / Latency (min) ISWS / Latency (min) REM sleep / Latency (min) dSWS / REMS/TST (%) / Shifts (number) Shift from ISWS to AW / Shifts (number) Shift from ISWS to PW / Shifts (number) Shift from REMS to AW / Shifts (number) Shift from REMS to PW / Shifts (number) Shift from dSWS to AW / Shifts (number) Shift from dSWS to PW / Total sleep time TST / dSWS/TST (%): 16 hours recording period
[2] = test system: Rats; assay: Spontaneous Locomotor Activity in Mice and Rats model (rats); format: in vivo, rat
[3] = test system: Mice; assay: Spontaneous Locomotor Activity in Mice and Rats model (mice); format: in vivo, mouse
[4] = 3 mg/kg i.p., 16 hours recording
[5] = 10 mg/kg i.p., first 90 minutes of the recording period
[6] = 30 mg/kg i.p., 16 hours recording
[7] = 30 mg/kg i.p., vs vehicle, 16-h post-injection period

NC(=O)OCC(N)Cc1ccccc1 [R228060, (R)-(beta-amino-benzenepropyl) carbamate]
increased drive to wakefulness from deep sleep [1, 4]: +15%
increased drive to wakefulness from light sleep [1, 4]: +46%
Duration (min) Active wake ([1]; 3 mg/kg i.p.): 290.0 min
Duration (min) Deep sleep ([1]; 3 mg/kg i.p.): 125.0 min
Duration (min) Light sleep ([1]; 3 mg/kg i.p.): 374.7 min
Duration (min) Passive wake ([1]; 3 mg/kg i.p.): 79.5 min
Duration (min) REM sleep ([1]; 3 mg/kg i.p.): 84.0 min
Duration (min) intermediate stage ([1]; 3 mg/kg i.p.): 2.9 min
ISWS/TST (%) ([1]; 3 mg/kg i.p.): 64.3 ± 3.3%
Latency (min) ISWS ([1]; 3 mg/kg i.p.): 15.6 ± 4.1 min
Latency (min) REM sleep ([1]; 3 mg/kg i.p.): 66.0 ± 11.8 min
Latency (min) dSWS ([1]; 3 mg/kg i.p.): 42.0 ± 8.5 min
REMS/TST (%) ([1]; 3 mg/kg i.p.): 14.4 ± 1.0%
Shifts (number) Shift from ISWS to AW ([1]; 3 mg/kg i.p.): 217.8 number
Shifts (number) Shift from ISWS to PW ([1]; 3 mg/kg i.p.): 78.1 number
Shifts (number) Shift from REMS to AW ([1]; 3 mg/kg i.p.): 78.0 number
Shifts (number) Shift from REMS to PW ([1]; 3 mg/kg i.p.): 3.7 number
Shifts (number) Shift from dSWS to AW ([1]; 3 mg/kg i.p.): 9.7 number
Shifts (number) Shift from dSWS to PW ([1]; 3 mg/kg i.p.): 6.6 number
Total sleep time TST ([1]; 3 mg/kg i.p.): 586.6 ± 20.0 min
dSWS/TST (%) ([1]; 3 mg/kg i.p.): 20.8 ± 3.8%
change in total time spent in light sleep ([1]; 3 mg/kg, vs vehicle, 16 hours recording): +26%
increase in shifts from REM sleep towards active wakefulness ([1]; 10 mg/kg i.p., 16 hours recording): +16%
Duration (min) Active wake ([1]; 10 mg/kg i.p.): 305.5 min
Duration (min) Deep sleep ([1]; 10 mg/kg i.p.): 104.0 min
Duration (min) Light sleep ([1]; 10 mg/kg i.p.): 366.6 min
Duration (min) Passive wake ([1]; 10 mg/kg i.p.): 73.4 min
Duration (min) REM sleep ([1]; 10 mg/kg i.p.): 102.3 min
Duration (min) intermediate stage ([1]; 10 mg/kg i.p.): 5.2 min
ISWS/TST (%) ([1]; 10 mg/kg i.p.): 63.5 ± 2.7%
Latency (min) ISWS ([1]; 10 mg/kg i.p.): 30.4 ± 7.9 min
Latency (min) REM sleep ([1]; 10 mg/kg i.p.): 87.5 ± 14.5 min
Latency (min) dSWS ([1]; 10 mg/kg i.p.): 127.2 ± 67.1 min
REMS/TST (%) ([1]; 10 mg/kg i.p.): 17.8 ± 1.0%
Shifts (number) Shift from ISWS to AW ([1]; 10 mg/kg i.p.): 204.5 number
Shifts (number) Shift from ISWS to PW ([1]; 10 mg/kg i.p.): 84.4 number
Shifts (number) Shift from REMS to AW ([1]; 10 mg/kg i.p.): 94.1 number
Shifts (number) Shift from REMS to PW ([1]; 10 mg/kg i.p.): 8.9 number
Shifts (number) Shift from dSWS to AW ([1]; 10 mg/kg i.p.): 4.2 number
Shifts (number) Shift from dSWS to PW ([1]; 10 mg/kg i.p.): 12.5 number
Total sleep time TST ([1]; 10 mg/kg i.p.): 578.1 ± 22.6 min
dSWS/TST (%) ([1]; 10 mg/kg i.p.): 17.7 ± 3.1%
deep sleep duration [1, 5]: significant decrease
time spent in active wakefulness [1, 5]: increase
change in total time spent in light sleep ([1]; 10 mg/kg, vs vehicle, 16 hours recording): +24%
overall profile of effects compared with amphetamine at 1 mg/kg (effect pattern, size and duration) ([1]; 30 mg/kg): remarkably similar
rebound effect (increase in time spent in deep sleep), hours following administration ([1]; 30 mg/kg): 4 to 10 h
mean durations of the sleep wake states (active wakefulness, passive wakefulness, light sleep, REM sleep) ([1]; 30 mg/kg i.p.): not modified
change in number of REM sleep epochs [1, 6]: −24%
change in number of active wake epochs [1, 6]: +19%
change in number of light sleep epochs [1, 6]: −23%
change in number of passive wakefulness epochs [1, 6]: −30%
Duration (min) Active wake ([1]; 30 mg/kg i.p.): 371.6 min
Duration (min) Deep sleep ([1]; 30 mg/kg i.p.): 214.9 min
Duration (min) Light sleep ([1]; 30 mg/kg i.p.): 235.8 min
Duration (min) Passive wake ([1]; 30 mg/kg i.p.): 57.3 min
Duration (min) REM sleep ([1]; 30 mg/kg i.p.): 72.9 min
Duration (min) intermediate stage ([1]; 30 mg/kg i.p.): 4.0 min
ISWS/TST (%) ([1]; 30 mg/kg i.p.): 44.9 ± 2.9%
Latency (min) ISWS ([1]; 30 mg/kg i.p.): 73.6 ± 25.7 min
Latency (min) REM sleep ([1]; 30 mg/kg i.p.): 251.8 ± 32.0 min
Latency (min) dSWS ([1]; 30 mg/kg i.p.): 174.6 ± 12.3 min
REMS/TST (%) ([1]; 30 mg/kg i.p.): 13.7 ± 1.3 %
Shifts (number) Shift from ISWS to AW ([1]; 30 mg/kg i.p.): 221.9 number
Shifts (number) Shift from ISWS to PW ([1]; 30 mg/kg i.p.): 74.2 number
Shifts (number) Shift from REMS to AW ([1]; 30 mg/kg i.p.): 65.1 number
Shifts (number) Shift from REMS to PW ([1]; 30 mg/kg i.p.): 4.1 number
Shifts (number) Shift from dSWS to AW ([1]; 30 mg/kg i.p.): 8.7 number
Shifts (number) Shift from dSWS to PW ([1]; 30 mg/kg i.p.): 17.6 number
Total sleep time TST ([1]; 30 mg/kg i.p.): 527.0 ± 7.9 min
dSWS/TST (%) ([1]; 30 mg/kg i.p.): 39.2 ± 2.9 %
active wakefulness ([1]; 30 mg/kg i.p., first 3 hours following the administration): significant enhancement
change in total time spent in REM sleep [1, 7]: −25%
change in total time spent in active wakefulness [1, 7]: +19%
change in total time spent in light sleep [1, 7]: −20%
change in total time spent in passive wakefulness [1, 7]: −29%
active wakefulness at the expense of time spent in light sleep, deep sleep and REM sleep ([1]; 30 mg/kg, first 3 to 4 hours after the administration): strongly increased
changes in vigilance states ([1]; 3 and 10 mg/kg): Minor changes
duration of central activity ([1]; after intraperitoneal injection): at least 4 hours
peak in effect, time post administration ([1]; i.p.): around 2 hours
onset of activity ([1]; i.p., time following administration): ~30 min
Spontaneous Locomotor Activity [2]: stimulant or energizing effects
Spontaneous Locomotor Activity [3]: stimulant or energizing effects
